Laboratory results taken from patent US20100077512A1 (priority 2006, published 2010).

Tests used:
[1] = test system: tobacco budworm (Heliothis virescens); conditions: 2500 ppm, eggs sprayed, 6 days
Description: 15 to 25 eggs were placed into microtiterplates filled with diet. The eggs were sprayed with 10 μl of the test solution, the plates were sealed with pierced foils and kept at 27-29° C. and 75-85% humidity under fluorescent light for 6 days. Mortality was assessed on the basis of the agility and of comparative feeding of the hatched larvae. Tests were replicated 2 times.

[2] = test system: Mediterranean fruitfly (Ceratitis capitata); conditions: 2500 ppm, eggs sprayed, 6 days

## O=S(=O)(NCc1ccnnc1)c1cc(Br)cs1
other
  melting point: 120 to 122 °C

## N#Cc1ccc(-c2ccc(S(=O)(=O)NCc3ccnnc3)cc2)cc1 [Example 11]
[1]
  mortality: at least 75%

## O=S(=O)(NCc1ccnnc1)c1ccc(-c2ccc(Cl)cc2)nc1 [Example 60]
[2]
  mortality: at least 75%
